In US11931347B2, “Method of screening for agents for differentiating stem cells” (MINERVA BIOTECHNOLOGIES CORPORATION, priority 2015, dated 2024):

Tests used:
[1] = test system: E-cadherin, fibronectin, vimentin and NF1 expression in naïve stem cells; test: RT-PCR of differentiation markers in treated naïve stem cells; format: cell-based, human
Description: FIG. 161 is a graph of RT-PCR measurement of naïve stem cells that have been treated with compounds of the invention. The genes whose expression is measured are E-cadherin, which goes […] as cells undergo epithelial to mesenchymal transition, fibronectin and vimentin, which both increase as stem cells initiate differentiation and NF1, which is one of the first genes to increase when stem cells begin to differentiate down the neural lineage. […] E-cadherin is the opposite; it […] as cells become cancerous. […] Expression of metastatic marker E-cadherin was reduced and expression of differentiation markers fibronectin, vimentin and NF1 were increased (FIG. 162-FIG. 163). Novel compounds of the invention are highly specific. […] Although we discovered that NME1 dimers, NME7AB and NME7-X1 are all activating ligands of the MUC1* growth factor receptor and they bind to its extracellular domain, we have developed ample evidence that both NME7AB and NME7-X1 have other binding partners and can exert oncogenic effects, independent of MUC1*.

T47D breast cancer cells [2] = test: cancer cell proliferation assay (Calcein live cell stain); format: cell-based, human; details: for inhibition of growth of T47D cells: live cell Calcein stain, 96 hours (FIG. 113)
Description: These analogs of MN1194 and 1186 were also tested in a cell growth assay (FIGS. 107A1-107H6 and FIG. 108A1-108H6, respectively). In this experiment, both parent compound and analogs thereof were added to normal cell culture media to final concentrations of 40 uM, 20 uM, 10 uM, 5 uM or 2.5 uM. For comparison, previously known cancer cell migration inhibitors SU11274 and MN1204 were included in the same experiment. […] Relative cell proliferation is quantified on a standard plate reader that reads the fluorescence of the Calcein that is taken up by live cells.
Small molecule inhibition of cancer cell proliferation studies were also performed on several cancer sub-types. […] The small molecules of the invention had the most robust effect on T47D breast cancer cells, which are highly positive for MUC1* growth factor receptor, and its activating ligands NME7AB and NME7-X1.
(§1) For the cancer cell proliferation experiment cancer cells were plated at constant densities (6000 cells/well) into a 96-well White-walled/Clear-bottom Tissue Culture Treated plate (Corning Incorporated, Big Flats, N.Y.). Small molecule analogs are added at T=24 hours in media with 2% FBS. Following the addition of the small molecules, the cells remain untouched for 120 hours with visual confirmations/inspections at 24, 48, 72 and 96 hours post plating. At the 120 hour mark a calcein fluorescence assay (Thermo Fisher Scientific, Waltham, Mass.) is performed on the plate. Calcein fluorescence (final concentration 0.5 uM) is used to assess cell viability. Cancer cell fluorescence is measured in a TECAN SAFIRE^2 spectrophotometer plate reader. The plate is then imaged using an Olympus IX71 fluorescence imaging microscope and montage of the resulting images are assembled using ImageJ.

[3] = test system: DU145 MUC1* positive prostate cancer cells; test: cancer cell proliferation assay (Calcein); format: cell-based; details: 96 hours (FIG. 109)
Description: as §1, with “Small molecule inhibition of cancer cell proliferation studies were also performed on several cancer sub-types. […] The small molecules of the invention had the most robust effect on T47D breast cancer cells, which are highly positive for MUC1* growth factor receptor, and its activating ligands NME7AB and NME7-X1. […] For” for “For”

[4] = test system: MDA-MB-453 breast cancer cells; test: cancer cell proliferation assay (Calcein); format: cell-based; details: 96 hours (FIG. 110)
Description: as §1, with “Small molecule inhibition of cancer cell proliferation studies were also performed on several cancer sub-types. […] The small molecules of the invention had the most robust effect on T47D breast cancer cells, which are highly positive for MUC1* growth factor receptor, and its activating ligands NME7AB and NME7-X1. […] For” for “For”

[5] = test system: PC-3 MUC1* negative, NME7AB positive prostate cancer cells; test: cancer cell proliferation assay (Calcein); format: cell-based; details: 96 hours (FIG. 111)
Description: as §1, with “Small molecule inhibition of cancer cell proliferation studies were also performed on several cancer sub-types. […] The small molecules of the invention had the most robust effect on T47D breast cancer cells, which are highly positive for MUC1* growth factor receptor, and its activating ligands NME7AB and NME7-X1. […] For” for “For”

[6] = test system: human naïve state stem cells; test: stem cell drug screening assay on naïve state stem cells; format: cell-based; details: 6 uM, 3 days
Description: (§2) The stem cell screening assay, was performed in both the presence and absence of the stem cell growth factors: NME7AB for growing naïve stem cells or FGF for growing primed stem cells. If the cognate growth factor was present, then the biological or small molecule would have to compete away the growth factor to get an effect. Therefore, we expected to see more of an effect when the growth factor, FGF for primed stem cells or NME7AB or NME1 dimers for naïve stem cells, was absent. The effect of the compounds on stem cells was visually determined and compounds were ranked 0-4, with 4 being the greatest effect and 0 being no observable effect. The major effect that was observed was a change from pluripotent stem cell morphology, which is a cobblestone pattern of small round cells with a large nucleus to cytoplasm ratio, to that of differentiating stem cells, which are elongated, large and flattened cells with a smaller nucleus to cytoplasm ratio. […] The compounds were added to a final concentration of 6 uM to either naïve state stem cells or primed state stem cells. In this particular case, the naïve state stem cells were maintained in a naïve state by culturing in a media containing NME7AB or NME1 dimers. However, other methods such as 2i and 5i (Silva et al., 2008, Nichols and Smith, 2009, Theunissen et al., 2014)] can be used to maintain stem cells in a more naïve state. In this case primed state stem cells were cultured in bFGF over a layer of MEFs, although it is known that any bFGF containing media will maintain stem cells in the primed state.
Stem cells whether embryonic or induced pluripotent stem (iPS) cells were cultured in a minimal, serum-free media that contained human recombinant NME7AB at a concentration of 2-32 nM wherein 4-8 nM is preferred and 4 nM is more preferred. To facilitate surface attachment, cell culture plates were coated with an anti-MUC1* monoclonal antibody called MN-C3 or C3 or MN-C8 at a concentration of 2-100 ug/mL coating solution, wherein 3-50 ug/mL is preferred and 6-12.5 ug/mL is more preferred. In these experiments, 12.5 ug/mL of MN-C3 was used. Antibody coated plates were incubated at 4 degrees C. overnight prior to plating stem cells. A Rho kinase I inhibitor was added to enhance surface attachment. In some cases, NME7AB was substituted with human recombinant NME1 dimers which also induce stem cells to revert to a naïve-like state.
(§3) Human naïve state and primed stem cells were cultured in parallel for at least 5 passages to guarantee normal differentiation-free growth. The stem cells were plated in 12-well cell culture plates with 50,000 cells per well. Cells were cultured in their respective media, either bFGF media or NME7AB media for 24 hours. Media was then removed and replaced with media devoid of bFGF or NME7AB, when indicated. Agents being tested for their ability to induce differentiation of naïve stem cells were added to the media at the concentrations indicated. After 72 hours, photographs were taken see FIGS. 1-10.
(§4) Human naïve state and primed stem cells were cultured in parallel for at least 5 passages to guarantee normal differentiation-free growth. The stem cells were plated in 12-well cell culture plates with 50,000 cells per well. Cells were cultured in their respective media, either bFGF media or NME7AB media for 24 hours. Media was then removed and replaced with media devoid of bFGF or NME7AB. […] Media was changed after 48 hours and replaced with fresh media containing the BRD4 inhibitors. After 4 days the experiment was stopped. Photographs were taken and cell pellets collected for further analysis, see FIGS. 11-16.

[7] = test system: human primed state stem cells; test: stem cell drug screening assay on primed state stem cells; format: cell-based; details: 6 uM, 3 days
Description: as §2
Stem cells whether embryonic or induced pluripotent stem (iPS) cells were cultured in a minimal, serum-free media that contained human recombinant bFGF at a concentration of 8 ng/mL. The stem cells were plated over a layer of inactivated mouse embryonic fibroblasts, aka MEFs, which secrete additional uncharacterized growth factors and cytokines.
as §3, §4

T47D breast cancer cells [8] = test: cancer cell migration, invasion assay (Platypus/Oris system); format: cell-based, human; details: T47D, 120 hours
Description: We then tested an expanded panel of agents, including agents known to inhibit cancer growth or migration (FIG. 17) (Horm et al., 2012; Meng & Yue, 2014; Zhen et al., 2014), which is characteristic of aggressive or metastatic cancers. We also synthesized a series of novel small molecules, tested them in the stem cell drug screening assay, and then synthesized analogs of the best hits. These small molecules are pictured in FIGS. 18-27. Both the known compounds and the novel compounds were tested in the stem cell drug screening assay. The effects of the small molecules on naïve versus primed state stem cells are shown in the photographs of FIGS. 29-72. The small molecules pictured in FIGS. 17-27 and the biologicals were also tested in a cancer cell migration assay. A structure activity relationship table is seen in FIG. 28. Potent cancer cell migration is characteristic of cancer cell invasion of other tissues and of metastasis. Typical migration assays involve coating a cell culture plate with fibronectin, collagen or the like, plating cancer cells and making a scar across through the cells and measuring the time it takes for the cancer cells to invade the void space. An alternative approach that gives more reliable data is the Platypus System which is a special multi-well cell culture plate with a juxtaposed set of plugs that block off a circle in the center of each well. Cancer cells are plated while the plugs are in place, then they are removed after the cells attach to the plate surface. […] A bar graph summarizing the results of the known anti-migration compounds compared to the anti-MUC1* Fab E6 and the first few small molecules synthesized is shown in FIG. 73. The effect of two novel small molecules MN1186 and MN1194, compared to the known anti-migration molecule SU11274, is shown in FIG. 75A-75U. FIG. 75V is a graph showing the measured inhibition of cancer cell migration at time 0, 24 hours or 48 hours for a number of compounds. […] FIG. 75X is a graph showing how IC50's of the small molecules of the invention were measured and calculated.
Percent inhibition of cancer cell migration was performed in a wound healing assay. The Percent area that the invading cancer cells occupied, in the presence of a drug candidate compared to the controls, was quantified by Image J cell software which enables cell counting from photographs. IC50's were calculated by performing migration experiments at several compound concentrations and then applying Hill's equation. Inhibition of cancer cell proliferation was quantified by automated cell counting in the presence or absence of a drug candidate. Here, the potency of the drug candidate was simply scored 4 for the highest degree of inhibition and 0 for the lowest. […] The effect of each drug candidate was scored 0-4, with 4 being the highest in inhibiting cell proliferation (FIG. 28).
For the cancer cell migration experiment cancer cells were plated at varying densities into an Oris Cell Migration Assay Collagen-1 coated 96-well plate (Platypus Technologies LLC, Madison, Wis.). The Collagen-1 coated 96-well plate incorporates a specific vacuum plug which attaches to the bottom of each well, creating an area in which the cells cannot grow into. Once the cells have been plated at high densities into each well, they are allotted an 18-24 hour time period to attach to the bottom of the wells. Post-24 hour plugs are removed from the plate and then small molecule analogs are added to the wells. Images are taken of each well and represent time 0 (T=0) for each well. Images are taken of the wells at the 24, 48, 72, 96 and 120 hour time points. Data analysis is conducted using the images taken at these specific time point. Images are imported into ImageJ (Rasband, W. S., ImageJ, U. S. National Institutes of Health, Bethesda, Md., USA, http://imagej.nih.gov/ij/, 1997-2016.) and the area remaining free of cells is calculated. […]

| Structure (SMILES) | up-regulation of markers of differentiation in naïve stem cells (RT-PCR) [1] | inhibition of growth of T47D cells (T47D breast cancer cells [2]) | inhibition of growth of DU145 cells [3] | inhibition of growth of MDA-MB-453 cells [4] | inhibition of growth of PC-3 cells [5] | effect on naïve stem cell pluripotency, growth or differentiation (visually determined) [6] | effect on primed stem cell pluripotency, growth or differentiation (visually determined) [7] | inhibition of cancer cell migration (T47D breast cancer cells [8]) | inhibition of cancer cell proliferation relative to parent compounds (T47D breast cancer cells [2]; T47D, Calcein assay after 120 hours, 40-2.5 uM) |
| --- | --- | --- | --- | --- | --- | --- | --- | --- | --- |
| CC(C)C1c2[nH]c3ccccc3c2CCN1C(=O)CCCCNC(=O)OC(C)(C)C (centres unmarked) [MN1235] | failed to induce differentiation |  |  |  |  |  |  |  |  |
| CC(C)CC1c2[nH]c3ccccc3c2CCN1C(=O)CCc1ccccc1 (centres unmarked) [MN1133] |  | severely inhibited growth | inhibited the growth | inhibited the growth | inhibited the growth |  |  |  |  |
| CCCCNC(=O)N1CCc2c([nH]c3ccccc23)C1C(C)c1ccccc1 (centres unmarked) [MN1130] |  | severely inhibited growth | inhibited the growth | inhibited the growth | inhibited the growth | induced differentiation | modest effect |  |  |
| CC(C)CC1c2[nH]c3cc(F)ccc3c2CCN1C(=O)CNC(=O)OC(C)(C)C (centres unmarked) [MN1227] |  | severely inhibited growth | inhibited the growth | inhibited the growth | inhibited the growth |  |  | improvements over MN1186 | inhibit cancer cell proliferation better than parent compounds |
